By IC50 is commonly meant the point on the concentration scale where inhibition reaches its midpoint. The low end stands for greater potency, the high end for weaker potency. The IC80 is the point of the concentration-response curve where the effect stands at 80%. Low readings indicate an effect from little substance, high ones a need for much substance.

Results on 14 molecules are retold here after ChEMBL document CHEMBL1208698, “Synthesis of novel alpha-pyranochalcones and pyrazoline derivatives as Plasmodium falciparum growth inhibitors” (Bioorg Med Chem Lett, 2010).

Values after ≈ are worked out from the molar mass of the structure shown.

Data set [1] has as its system Plasmodium falciparum. The experiment in a line: Antimalarial activity against chloroquine-sensitive Plasmodium falciparum 3D7 infected in human erythrocyte after 48 h by SYBR-Green-1 assay. In kind it is functional, organism-based. The settings on record: 3D7, 48 h.
Data set [2] deals with Plasmodium falciparum. The experiment in a line: Antimalarial activity against chloroquine-resistant Plasmodium falciparum RKL9 infected in human erythrocyte after 48 h by SYBR-Green-1 assay. In kind it is functional, organism-based. The settings on record: RKL9, 48 h.
Data set [3] has as its system Plasmodium falciparum. The experiment in a line: Resistance index, ratio of IC50 for Plasmodium falciparum 3D7 to IC50 for Plasmodium falciparum RKL9. In kind it is functional.
Data set [4] in a line: Cytotoxicity against human HeLa cells after 24 to 48 hrs by MTT assay. In kind it is cell-based. Conditions: read-out: TC50 (the source's name). (Tetrazolium dyes change colour on reduction, which living cells bring about.)
A short description of data set [5]: Therapeutic index, ratio of TC50 for human HeLa cells to IC50 for Plasmodium falciparum RKL9. In kind it is cell-based. The settings on record: read-out: TI.

In the data set with Plasmodium falciparum [1], `COc1ccccc1/C=C/C(=O)c1cc2ccccc2oc1=O` registered an IC50 greater than 100 µg/mL.
In the data set on Plasmodium falciparum [1], `COc1ccc(/C=C/C(=O)c2cc3ccccc3oc2=O)cc1OC` displayed a half-maximal inhibitory concentration (IC50) of 26.7 µg/mL (≈ 79.4 µM) and an IC80 of 100 µg/mL (≈ 297 µM).
Turning to `C[C@@H]1CC[C@H]2[C@@H](C)C(=O)O[C@@H]3O[C@@]4(C)CC[C@@H]1[C@]32OO4` [ARTEMISININ], it took 0.00846 µg/mL (≈ 0.03 µM) to reach the 80% level in the data set on Plasmodium falciparum [1] (IC80). Moreover, the half-inhibitory concentration (IC50) in the data set on Plasmodium falciparum [2] is 0.00451 µg/mL (≈ 0.016 µM).
As to `Cc1cc(=O)oc2ccc(C(=O)/C=C/c3ccccc3Cl)c(O)c12`, the half-inhibitory concentration (IC50) was 20 µg/mL (≈ 58.7 µM) with Plasmodium falciparum [1] and 13.5 µg/mL (≈ 39.6 µM) in the data set on Plasmodium falciparum [2]. The molecule also yielded an IC80 with Plasmodium falciparum [1] of 25 µg/mL (≈ 73.4 µM). Also, in the data set with Plasmodium falciparum [3], the “Ratio IC50” value is 1.5.
Consider `COc1ccc(C2CC(c3cc4ccccc4oc3=O)=NN2c2ccccc2)cc1OC` (stereo not given), for which the CC50 in data set [4] is greater than 100 µg/mL. In the data set with Plasmodium falciparum [1], the half-maximal inhibitory concentration (IC50) is 10 µg/mL (≈ 23.4 µM) and the concentration for an effect of 80% (IC80) came to 44 µg/mL (≈ 103 µM). This molecule also registered a half-inhibitory concentration (IC50) in the data set with Plasmodium falciparum [2] of 7.6 µg/mL (≈ 17.8 µM). The selectivity ratio in data set [5] is greater than 13. For the same molecule, the “Ratio IC50” value in the data set with Plasmodium falciparum [3] amounted to 1.3.
For the molecule `CC(=O)N1N=C(c2ccc(O)cc2)CC1c1ccc(F)cc1` (stereo not given), in the data set with Plasmodium falciparum [1], the 50% inhibitory concentration (IC50) is greater than 100 µg/mL.
In the case of `COc1cccc(/C=C/C(=O)c2cc3ccccc3oc2=O)c1`, in data set [4], the CC50 was greater than 100 µg/mL. Moreover, the values for the IC50 in the data set with Plasmodium falciparum [1] and with Plasmodium falciparum [2] were 11 µg/mL (≈ 35.9 µM) and 4.9 µg/mL (≈ 16 µM), respectively. In addition, the 80% effect level in the data set on Plasmodium falciparum [1] (IC80) was put at 24 µg/mL (≈ 78.4 µM). Further, in data set [5], the selectivity ratio was greater than 20. The “Ratio IC50” value in the data set on Plasmodium falciparum [3] is on record as 2.2.
In the case of `COc1ccc(OC)c(/C=C/C(=O)c2ccc3oc(=O)cc(C)c3c2O)c1`, the IC50 in the data set with Plasmodium falciparum [1] was greater than 100 µg/mL.
As to `COc1cc(OC)c(OC)cc1/C=C/C(=O)c1cc2ccccc2oc1=O`, the 50% inhibitory concentration (IC50) in the data set with Plasmodium falciparum [1] was greater than 100 µg/mL.
As for `COc1ccc(C2CC(c3cc4ccccc4oc3=O)=NN2C(C)=O)cc1OC` (stereo not given), the CC50 in data set [4] is greater than 100 µg/mL. In addition, in the data set with Plasmodium falciparum [1], 10 µg/mL (≈ 25.5 µM) corresponded to half-maximal inhibition (IC50) and the 80% effect concentration (IC80) came to 14 µg/mL (≈ 35.7 µM). Moreover, in the data set with Plasmodium falciparum [2], it took 9 µg/mL (≈ 22.9 µM) to reach half-maximal inhibition (IC50). Further, the selectivity ratio in data set [5] is greater than 10. The “Ratio IC50” value with Plasmodium falciparum [3] is given as 1.1.
Turning to `COc1ccc(/C=C/C(=O)c2cc3ccccc3oc2=O)c(OC)c1OC`, in data set [4], the CC50 came to 100 µg/mL (≈ 273 µM). In the data set with Plasmodium falciparum [1], this molecule had an IC50 of 3.1 µg/mL (≈ 8.46 µM) and a concentration for an effect of 80% (IC80) of 6.2 µg/mL (≈ 16.9 µM). Further, in the data set on Plasmodium falciparum [2], the IC50 amounted to 1.1 µg/mL (≈ 3 µM). Moreover, the selectivity ratio in data set [5] stood at 90.9. For the same molecule, the “Ratio IC50” value in the data set with Plasmodium falciparum [3] worked out at 2.8.
Take `COc1cc(/C=C/C(=O)c2cc3ccccc3oc2=O)cc(OC)c1OC`: the CC50 in data set [4] is greater than 100 µg/mL. In the data set on Plasmodium falciparum [1], this molecule displayed an IC50 of 3.1 µg/mL (≈ 8.46 µM) and an IC80 of 6 µg/mL (≈ 16.4 µM). This molecule also had an IC50 with Plasmodium falciparum [2] of 1.9 µg/mL (≈ 5.19 µM). The selectivity ratio in data set [5] was greater than 50. In the data set with Plasmodium falciparum [3], the “Ratio IC50” value came out at 1.6.
In the data set on Plasmodium falciparum [1], `COc1ccc(OC)c(/C=C/C(=O)c2cc3ccccc3oc2=O)c1` displayed a 50% inhibitory concentration (IC50) of 2.7 µg/mL (≈ 8.03 µM) and an IC80 of 11.3 µg/mL (≈ 33.6 µM).
For the molecule `COc1ccc(/C=C/C(=O)c2cc3ccccc3oc2=O)cc1`, the half-maximal inhibitory concentration (IC50) in the data set with Plasmodium falciparum [1] was greater than 100 µg/mL.
